Source: US20260240860A1, “COMPOSITION FOR REJUVENATION OF SENESCENT CELLS OR DELAY OR PREVENTION OF CELLULAR SENESCENCE” (LONO JAEYAK INC., priority 2022, published 2026)

System: senescent human skin fibroblasts collected from newborn skin
Assay: Experiment to confirm cell division (Hoechst assay)
Assay type: cell-based
Conditions: for cell division results when the named compound replaced KU60019 (ATM kinase inhibitor) or ABT263 (Bcl-2 inhibitor) in the combinations: FIGS. 8 to 10; for cell rejuvenation effect of the five-component combination with the named compound as ATM kinase inhibitor or Bcl-2 inhibitor: FIGS. 24 and 25, ATM kinase inhibitor+ROCK inhibitor+Bcl-2 inhibitor+SIRT1 activator+AMPK activator treated together
Protocol: The human dermal fibroblasts used in the experiment were samples collected from newborn skin (PCS-201-010; ATCC), and the cells were cultured in a culture solution of DMEM [25 mM glucose, 10% FBS (S001-01; Welgene), 100 units/ml penicillin, 10 μg/ml streptomycin, and 25 ng/ml amphotericin B (LS203-01; Welgene)] under the conditions of 37° C. and 5% CO2.
After the 48th passage, ½ of the cells were cultured. When the population doubling time (DT) exceeded 14 days and the senescence-associated β-galactosidase (SA-β) ratio exceeded 95%, experiments were conducted by considering the cells as sufficiently aged.
The cell division ability of the senescent cells treated with the compounds in the above examples and comparative examples was investigated.
The cells to be used in the experiment were transplanted into a plate three days before the experiment. The cells treated with the compounds were stained with 10 μg/ml Hoechst 33342 for 30 minutes and washed twice with phosphate-buffered saline (PBS), and the amount of the cells was quantified using a plate reader (FLUOstar Omega) at wavelengths of ex/em: 355/460 nm.
FIGS. 1 to 10 show the experimental results for each example and comparative example in which human skin fibroblasts collected from newborn skin were used as senescent cells.
An additional experiment was conducted using the same method as Experimental Example 1, but with a greater variety of concentrations of the treated substances.

SMILES: C/C1=C\CCC2=C[C@@H](OC2=O)c2c(C)coc2C1 [linderalactone]
- cell division results when the named compound replaced KU60019 (ATM kinase inhibitor) or ABT263 (Bcl-2 inhibitor) in the combinations: the results showed the same pattern
- cell rejuvenation effect of the five-component combination with the named compound as ATM kinase inhibitor or Bcl-2 inhibitor: excellent cell rejuvenation effect

SMILES: CN(C)CC[C@H](CSc1ccccc1)Nc1ccc(S(=O)(=O)NC(=O)c2ccc(N3CCN(Cc4ccccc4-c4ccc(Cl)cc4)CC3)cc2)cc1[N+](=O)[O-] [ABT737]
- cell division results when the named compound replaced KU60019 (ATM kinase inhibitor) or ABT263 (Bcl-2 inhibitor) in the combinations: the results showed the same pattern

SMILES: CNC(=O)c1ccc(-c2cnc3cnc(-c4ccccc4)cn23)cc1 [AZ32]
- cell division results when the named compound replaced KU60019 (ATM kinase inhibitor) or ABT263 (Bcl-2 inhibitor) in the combinations: the results showed the same pattern
- cell rejuvenation effect of the five-component combination with the named compound as ATM kinase inhibitor or Bcl-2 inhibitor: excellent cell rejuvenation effect
